# Reference: US20230233569A1 (Revolution Medicines, Inc., priority 2020, published 2023)
# Like-named read-outs stand apart in the source and are kept apart here.
# What was measured:
# [1] = test system: 4EBP1 (Thr37/46) phosphorylation (mTORC1) in MDA-MB-468 cells; assay: Cell based AlphaLISA assay, mTOR kinase cellular assay: inhibition of p-4E-BP1 (T37/46) in MDA-MB-468 cells; conditions: Homo sapiens, read-out: pIC50 for Inhibition of mTORC1 and mTORC2 Substarte Phosphorylation p-4E-BP1-(T37/46) (converted)
# Protocol: (§1) Cell Based AlphaLISA Assays for Determining IC50 For Inhibition of P-Akt (S473), P-4E-BP1 (T37/46), and P-P70S6K (T389) in MDA-MB-468 Cells
# (§2) mTOR Kinase Cellular Assay
# (§3) To measure functional activity of mTORC1 and mTORC2 in cells the phosphorylation of 4EBP1 (Thr37/46) and P70S6K (Thr389), and AKT1/2/3 (Ser473) was monitored using AlphaLisa SureFire Ultra Kits (Perkin Elmer). MDA-MB-468 cells (ATCC® HTB-132) were cultured in 96-well tissue culture plates and treated with compounds in the disclosure at concentrations varying from 0.017-1,000 nM for two to four hours at 37° C. Incubations were terminated by removal of the assay buffer and addition of lysis buffer provided with the assay kit. Samples were processed according to the manufacturer's instructions. The Alpha signal from the respective phosphoproteins was measured in duplicate using a microplate reader (Envision, Perkin-Elmer or Spectramax M5, Molecular Devices). Inhibitor concentration response curves were analyzed using normalized IC50 regression curve fitting with control based normalization.
# [2] = test system: AKT1/2/3 (Ser473) phosphorylation (mTORC2) in MDA-MB-468 cells; assay: Cell based AlphaLISA assay, mTOR kinase cellular assay: inhibition of p-Akt (S473) in MDA-MB-468 cells; conditions: Homo sapiens, read-out: pIC50 for Inhibition of mTORC1 and mTORC2 Substarte Phosphorylation p-AKT1/2/3-(S473) (converted)
# Protocol: as §1, §2, §3
# KRAS G12C = KRAS G12C (Homo sapiens, UniProt P01116+P62937, G12C); assay: Ras-Raf disruption / FRET / MOA assay (BRAF RBD); format: biochemical; conditions: with Cyclophilin A
# Outline: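 TR-FRET read-out after 1.5 h with anti-His Eu-W1024 (10 nM) and anti-GST APC (50 nM), following 3 h at 25 °C of compound (top 30 μM, 3-fold, 10 points) with 25 μM Cyclophilin A, 12.5 nM GMPPNP-loaded K-Ras G12C and 50 nM BRAF RBD; IC50 reported.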
# KRAS G12S = KRAS G12S (Homo sapiens, UniProt P01116+P62937, G12S); assay: Ras-Raf disruption / FRET / MOA assay (BRAF RBD); format: biochemical; conditions: with Cyclophilin A
# Outline: (§4)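 Compound-induced Ras–Cyclophilin A ternary complex disrupting BRAF RBD binding, read as IC50 from reduced TR-FRET ratio relative to DMSO. Final: Ras-GMPPNP 12.5 nM, BRAF RBD 50 nM, Cyclophilin A 25 μM, top compound 30 μM (3-fold, 10 points); 3 h at 25 °C, then 1.5 h with detection antibodies.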
# AsPC-1 (K-Ras G12D) [3] = assay: Potency assay: pERK; format: cell-based; conditions: Homo sapiens, ASPC1, read-out: pERK EC50
# NCI-H358 (K-Ras G12C) = assay: CellTiter-Glo cell viability assay; format: cell-based; conditions: Homo sapiens, NCI-H358, 120 h
# Outline: (§5)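 Luminescent viability readout on day 5, plates first brought to room temperature for ~30 min; compounds added straight to plated RAS-mutant cells. Values expressed as percent of mean DMSO signal, curves fitted with a four-parameter logistic model.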
# KRAS G12D = KRAS G12D (Homo sapiens, UniProt P01116+P62937, G12D); assay: Ras-Raf disruption / FRET / MOA assay (BRAF RBD); format: biochemical; conditions: with Cyclophilin A
# Outline: as §4
# KRAS WT = KRAS WT (Homo sapiens, UniProt P01116+P62937); assay: Ras-Raf disruption / FRET / MOA assay (BRAF RBD); format: biochemical; conditions: with Cyclophilin A
# Outline: as §4
# KRAS G12V = KRAS G12V (Homo sapiens, UniProt P01116+P62937, G12V); assay: Ras-Raf disruption / FRET / MOA assay (BRAF RBD); format: biochemical; conditions: with Cyclophilin A
# Outline: as §4
# NRAS G12C = NRAS G12C (Homo sapiens, UniProt P01111+P62937, G12C); assay: Ras-Raf disruption / FRET / MOA assay (BRAF RBD); format: biochemical
# Outline: as §4
# KRAS G13D = KRAS G13D (Homo sapiens, UniProt P01116+P62937, G13D); assay: Ras-Raf disruption / FRET / MOA assay (BRAF RBD); format: biochemical; conditions: with Cyclophilin A
# Outline: as §4
# KRAS G13C = KRAS G13C (Homo sapiens, UniProt P01116+P62937, G13C); assay: Ras-Raf disruption / FRET / MOA assay (BRAF RBD); format: biochemical; conditions: with Cyclophilin A
# Outline: as §4
# AsPC-1 (K-Ras G12D) [4] = assay: CellTiter-Glo cell viability assay; format: cell-based; conditions: Homo sapiens, ASPC1, 120 h
# Outline: as §5
# NRAS Q61R = NRAS Q61R (Homo sapiens, UniProt P01111+P62937, Q61R); assay: Ras-Raf disruption / FRET / MOA assay (BRAF RBD); format: biochemical; conditions: NRAS Q61R; read-out: NRAS Q61R FRET data IC50
# Outline: as §4
# NRAS WT = NRAS WT (Homo sapiens, UniProt P01111+P62937); assay: Ras-Raf disruption / FRET / MOA assay (BRAF RBD); format: biochemical; conditions: NRAS WT; read-out: NRAS WT FRET data IC50
# Outline: as §4
# NRAS Q61K = NRAS Q61K (Homo sapiens, UniProt P01111+P62937, Q61K); assay: Ras-Raf disruption / FRET / MOA assay (BRAF RBD); format: biochemical; conditions: NRAS Q61K; read-out: NRAS Q61K FRET data IC50
# Outline: as §4
# KRAS Q61H = KRAS Q61H (Homo sapiens, UniProt P01116+P62937, Q61H); assay: Ras-Raf disruption / FRET / MOA assay (BRAF RBD); format: biochemical; conditions: KRAS Q61H; read-out: KRAS Q61H FRET data IC50
# Outline: as §4
# [5] = KRAS G12C FRET data IC50, Ras-Raf disruption
# [6] = KRAS G12S FRET data IC50, Ras-Raf disruption
# [7] = read-out: H358 Cell Viability assay data IC50, K-Ras G12C, 5-day treatment
# [8] = K-Ras G12C, 5-day treatment, read-out: H358 Cell Viability assay data IC50
# [9] = K-Ras G12D, 5-day treatment, read-out: AsPC-1 Cell Viability assay data IC50
# Chain of KRAS G12S (P01116 1-169 isoform P01116-2 G12S limits assumed): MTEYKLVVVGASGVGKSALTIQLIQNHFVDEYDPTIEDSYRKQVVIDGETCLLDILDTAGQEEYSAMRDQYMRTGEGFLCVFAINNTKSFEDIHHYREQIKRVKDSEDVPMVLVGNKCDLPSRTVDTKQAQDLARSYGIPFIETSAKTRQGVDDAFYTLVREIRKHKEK
# Chain of KRAS G12S (P62937 whole entry): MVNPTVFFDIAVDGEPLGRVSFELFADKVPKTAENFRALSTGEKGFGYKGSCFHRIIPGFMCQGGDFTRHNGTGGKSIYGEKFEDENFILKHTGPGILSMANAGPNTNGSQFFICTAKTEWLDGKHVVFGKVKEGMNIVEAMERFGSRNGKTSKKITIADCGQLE
# Chain of KRAS G12C (P01116 1-169 isoform P01116-2 G12C limits assumed): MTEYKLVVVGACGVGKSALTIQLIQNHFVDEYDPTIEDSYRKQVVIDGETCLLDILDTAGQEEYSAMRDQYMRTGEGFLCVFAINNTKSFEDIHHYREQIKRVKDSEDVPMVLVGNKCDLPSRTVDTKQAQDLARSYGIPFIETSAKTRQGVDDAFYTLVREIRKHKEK
# Chain of KRAS G12C (P62937 whole entry): as the sequence (P62937 whole entry) above
# Chain of KRAS G13D (P01116 1-169 isoform P01116-2 G13D limits assumed): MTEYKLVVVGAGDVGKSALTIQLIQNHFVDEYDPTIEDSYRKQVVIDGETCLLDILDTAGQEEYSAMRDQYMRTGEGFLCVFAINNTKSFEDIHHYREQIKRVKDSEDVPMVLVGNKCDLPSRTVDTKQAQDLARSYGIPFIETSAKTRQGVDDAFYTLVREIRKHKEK
# Chain of KRAS G13D (P62937 whole entry): as the sequence (P62937 whole entry) above
# Chain of KRAS G12D (P01116 1-169 isoform P01116-2 G12D limits assumed): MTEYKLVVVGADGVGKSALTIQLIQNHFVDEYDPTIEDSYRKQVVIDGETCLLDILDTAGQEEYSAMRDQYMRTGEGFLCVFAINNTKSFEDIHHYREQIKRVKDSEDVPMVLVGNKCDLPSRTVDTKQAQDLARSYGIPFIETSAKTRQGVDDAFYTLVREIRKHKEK
# Chain of KRAS G12D (P62937 whole entry): as the sequence (P62937 whole entry) above
# Chain of KRAS G13C (P01116 1-169 isoform P01116-2 G13C limits assumed): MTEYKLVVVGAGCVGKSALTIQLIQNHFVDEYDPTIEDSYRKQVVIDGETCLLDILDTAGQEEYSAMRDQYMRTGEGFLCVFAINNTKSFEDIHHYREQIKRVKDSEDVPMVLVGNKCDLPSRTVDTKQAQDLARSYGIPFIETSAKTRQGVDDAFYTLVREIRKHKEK
# Chain of KRAS G13C (P62937 whole entry): as the sequence (P62937 whole entry) above
# Chain of KRAS WT (P01116 1-169 isoform P01116-2 limits assumed): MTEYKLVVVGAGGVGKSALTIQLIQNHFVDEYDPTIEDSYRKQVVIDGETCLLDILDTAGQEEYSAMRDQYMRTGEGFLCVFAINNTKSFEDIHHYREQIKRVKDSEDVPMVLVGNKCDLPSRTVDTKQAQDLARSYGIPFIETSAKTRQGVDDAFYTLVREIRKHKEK
# Chain of KRAS WT (P62937 whole entry): as the sequence (P62937 whole entry) above
# Chain of KRAS G12V (P01116 1-169 isoform P01116-2 G12V limits assumed): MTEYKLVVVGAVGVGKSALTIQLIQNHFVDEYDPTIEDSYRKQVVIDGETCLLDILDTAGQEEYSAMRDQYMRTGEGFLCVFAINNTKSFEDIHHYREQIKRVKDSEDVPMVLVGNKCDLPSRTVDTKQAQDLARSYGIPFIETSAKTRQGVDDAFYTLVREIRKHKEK
# Chain of KRAS G12V (P62937 whole entry): as the sequence (P62937 whole entry) above
# Chain of NRAS G12C (P01111 whole entry G12C): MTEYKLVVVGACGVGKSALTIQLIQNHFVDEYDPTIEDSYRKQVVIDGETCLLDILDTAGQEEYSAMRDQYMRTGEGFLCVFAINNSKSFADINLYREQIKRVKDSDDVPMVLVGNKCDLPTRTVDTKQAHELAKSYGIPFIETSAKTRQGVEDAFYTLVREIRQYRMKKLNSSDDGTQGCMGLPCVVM
# Chain of NRAS G12C (P62937 whole entry): as the sequence (P62937 whole entry) above
# Chain of NRAS Q61R (P01111 whole entry Q61R): as the sequence (P01111 whole entry G12C) above, with C12G, Q61R counted along it
# Chain of NRAS Q61R (P62937 whole entry): as the sequence (P62937 whole entry) above
# Chain of NRAS WT (P01111 whole entry): as the sequence (P01111 whole entry G12C) above, with C12G counted along it
# Chain of NRAS WT (P62937 whole entry): as the sequence (P62937 whole entry) above
# Chain of NRAS Q61K (P01111 whole entry Q61K): as the sequence (P01111 whole entry G12C) above, with C12G, Q61K counted along it
# Chain of NRAS Q61K (P62937 whole entry): as the sequence (P62937 whole entry) above
# Chain of KRAS Q61H (P01116 1-169 isoform P01116-2 Q61H limits assumed): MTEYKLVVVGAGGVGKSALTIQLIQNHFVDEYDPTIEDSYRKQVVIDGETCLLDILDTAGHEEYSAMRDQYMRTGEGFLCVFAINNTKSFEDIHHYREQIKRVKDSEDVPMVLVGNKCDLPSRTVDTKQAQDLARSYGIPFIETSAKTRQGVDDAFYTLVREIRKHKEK
# Chain of KRAS Q61H (P62937 whole entry): as the sequence (P62937 whole entry) above
smiles,measurement,setting,value
CO[C@H]1C[C@@H]2CC[C@@H](C)[C@@](O)(O2)C(=O)C(=O)N2CCCC[C@H]2C(=O)O[C@H]([C@H](C)C[C@@H]2CC[C@@H](OC(=O)NCc3cnc(N4CCN(c5ncc(C(=O)N(C)CCOCCOCCOCCOCCC(=O)N6CCc7cc(Cn8nc(-c9ccc%10oc(N)nc%10c9)c9c(N)ncnc98)ccc7C6)c(N)n5)CC4)nc3)[C@H](OC)C2)C[C@@H](OC)[C@H](C)/C=C(\C)[C@@H](O)[C@@H](OC)C(=O)[C@H](C)C[C@H](C)/C=C/C=C/C=C/1C [Example 107],IC50,[1],> 1 µM
same,IC50,[2],> 1 µM
CO[C@H]1C[C@@H]2CC[C@@H](C)[C@@](O)(O2)C(=O)C(=O)N2CCCC[C@H]2C(=O)O[C@H]([C@H](C)C[C@@H]2CC[C@@H](OC(=O)NCc3cnc(N4CCN(C(=O)CCOCCN5CCN(c6ncc(C(=O)N7CCc8cc(Cn9nc(-c%10cnc%11[nH]ccc%11c%10)c%10c(N)ncnc%109)ccc8C7)cn6)CC5)[C@@H](C(=O)O)C4)nc3)[C@H](OC)C2)CC(=O)[C@H](C)/C=C(\C)[C@@H](O)[C@@H](OC)C(=O)[C@H](C)C[C@H](C)/C=C/C=C/C=C/1C [Example 132],IC50,[1],≤ 0.00316 µM
same,IC50,[2],0.00316 to 0.0316 µM
CCn1c(-c2cccnc2[C@H](C)OC)c2c3cc(ccc31)-c1cc(O)cc(c1)C[C@H](NC(=O)[C@H](C(C)C)N(C)C(=O)CN(C)C(=O)[C@H]1N[C@@H]1C1CC1)C(=O)N1CCC[C@H](N1)C(=O)OCC(C)(C)C2 [Example 136],IC50,KRAS G12C; [5],0.01 to 0.1 µM
same,IC50,KRAS G12S; [6],0.01 to 0.1 µM
same,EC50,AsPC-1 (K-Ras G12D) [3],< 5 µM
same,IC50,NCI-H358 (K-Ras G12C); [7],< 0.01 µM
CCn1c(-c2cccnc2[C@H](C)OC)c2c3cc(ccc31)-c1cc(O)cc(c1)C[C@H](NC(=O)[C@H](C(C)C)N(C)C(=O)CN(C)C(=O)[C@H]1CN1CCOC)C(=O)N1CCC[C@H](N1)C(=O)OCC(C)(C)C2 (stereo partly shown) [Example 159],IC50,KRAS G12C; [5],0.01 to 0.1 µM
same,IC50,"KRAS G12D; KRAS G12D FRET data IC50, Ras-Raf disruption",0.1 to 1 µM
same,IC50,"KRAS WT; KRAS WT FRET data IC50, Ras-Raf disruption",0.01 to 0.1 µM
same,IC50,"KRAS G12V; KRAS G12V FRET data IC50, Ras-Raf disruption",0.01 to 0.1 µM
same,IC50,"NRAS G12C; NRAS G12C FRET data IC50, NRAS G12C",< 0.01 µM
same,IC50,"KRAS G13D; KRAS G13D FRET data IC50, Ras-Raf disruption",0.1 to 1 µM
same,IC50,"KRAS G13C; KRAS G13C FRET data IC50, Ras-Raf disruption",0.01 to 0.1 µM
same,IC50,KRAS G12S; [6],0.01 to 0.1 µM
same,IC50,NCI-H358 (K-Ras G12C); [7],< 0.01 µM
same,IC50,"AsPC-1 (K-Ras G12D) [4]; read-out: AsPC-1 Cell Viability assay data IC50, K-Ras G12D, 5-day treatment",0.1 to 1 µM
CCn1c(-c2cccnc2[C@H](C)OC)c2c3cc(ccc31)-c1cc(O)cc(c1)C[C@H](NC(=O)[C@H](C(C)C)N(C)C(=O)[C@@]1(C)CCCN1C(=O)[C@@H]1CN1)C(=O)N1CCC[C@H](N1)C(=O)OCC(C)(C)C2 [Example 241],IC50,NCI-H358 (K-Ras G12C); [8],< 0.01 µM
same,IC50,AsPC-1 (K-Ras G12D) [4]; [9],0.1 to 1 µM
CCn1c(-c2cccnc2[C@H](C)OC)c2c3cc(ccc31)-c1cc(cc(C(F)F)c1)C[C@H](NC(=O)[C@H](C1CCCC1)N1CC[C@]3(CCN(C(=O)[C@@H]4N[C@@H]4C4CC4)C3)C1)C(=O)N1CCC[C@H](N1)C(=O)OCC(C)(C)C2 [Example 318],IC50,"KRAS G12C; Ras-Raf disruption, read-out: KRAS G12C FRET data IC50",0.1 to 1 µM
same,IC50,"KRAS G12D; Ras-Raf disruption, read-out: KRAS G12D FRET data IC50",1 to 10 µM
same,IC50,NRAS Q61R,1 to 10 µM
same,IC50,"KRAS WT; Ras-Raf disruption, read-out: KRAS WT FRET data IC50",0.1 to 1 µM
same,IC50,NRAS WT,1 to 10 µM
same,IC50,"KRAS G12V; Ras-Raf disruption, read-out: KRAS G12V FRET data IC50",1 to 10 µM
same,IC50,"NRAS G12C; NRAS G12C, read-out: NRAS G12C FRET data IC50",1 to 10 µM
same,IC50,NRAS Q61K,1 to 10 µM
same,IC50,"KRAS G13D; Ras-Raf disruption, read-out: KRAS G13D FRET data IC50",1 to 10 µM
same,IC50,"KRAS G13C; Ras-Raf disruption, read-out: KRAS G13C FRET data IC50",0.1 to 1 µM
same,IC50,KRAS Q61H,0.1 to 1 µM
same,IC50,"KRAS G12S; Ras-Raf disruption, read-out: KRAS G12S FRET data IC50",1 to 10 µM
same,IC50,NCI-H358 (K-Ras G12C); [8],0.1 to 1 µM
same,IC50,AsPC-1 (K-Ras G12D) [4]; [9],0.1 to 1 µM
